According to patent US20090054403A1, “Treatment of Post-Traumatic Stress Disorder” (priority 2007, published 2009):
Values joined by “and” are separate entries in the source; they are usually repeats but may differ in a detail not shown here. Equal entries are not always repeated. Where two headings read alike, the source gives them in different places.

Experiments:
[1] = biological target: T1, bovine dopamine-β-hydroxylase (Bos taurus, UniProt P15101); experiment: Bovine DBH activity, conversion of tyramine to octopamine (HPLC); type: biochemical; conditions: for IC50: 0.1 mM tyramine, 4 mM ascorbate, pH 5.2
T1 construct: Bovine DBH from adrenal glands was obtained from Sigma Chemicals; purchased Sigma Chemicals (St Louis, Mo.); host or cells: bovine adrenal glands
T1 sequence (P15101 1-610): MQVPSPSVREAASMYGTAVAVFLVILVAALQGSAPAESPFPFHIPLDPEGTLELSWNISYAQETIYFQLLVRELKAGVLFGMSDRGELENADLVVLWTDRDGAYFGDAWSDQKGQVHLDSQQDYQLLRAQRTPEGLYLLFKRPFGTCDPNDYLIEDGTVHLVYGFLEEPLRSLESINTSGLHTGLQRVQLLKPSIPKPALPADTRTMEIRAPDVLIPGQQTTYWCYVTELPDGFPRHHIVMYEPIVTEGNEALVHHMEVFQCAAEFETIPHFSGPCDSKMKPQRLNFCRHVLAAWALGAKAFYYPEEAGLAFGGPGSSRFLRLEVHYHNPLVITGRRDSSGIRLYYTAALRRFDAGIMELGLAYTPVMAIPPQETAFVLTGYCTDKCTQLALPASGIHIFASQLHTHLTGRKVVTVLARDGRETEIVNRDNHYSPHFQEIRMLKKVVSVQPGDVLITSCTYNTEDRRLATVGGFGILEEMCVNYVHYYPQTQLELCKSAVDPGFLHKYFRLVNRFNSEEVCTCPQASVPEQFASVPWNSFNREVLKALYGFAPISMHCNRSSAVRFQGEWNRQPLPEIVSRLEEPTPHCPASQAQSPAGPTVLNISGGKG
Method: (§1) Bovine and human dopamine-β-hydroxylase activity was assayed by measuring the conversion of tyramine to octopamine. Bovine adrenal dopamine-β-hydroxylase was obtained from Sigma Chemicals (St Louis, Mo., USA) whereas human dopamine-β-hydroxylase was purified from the culture medium of the neuroblastoma cell line SK-N-SH. The assay was performed at pH 5.2 and 32° C. in a medium containing 0.125 M NaAc, 10 mM fumarate, 0.5-2 μM CuSO4, 0.1 mg.ml^−1 catalase, 0.1 mM tyramine and 4 mM ascorbate. In a typical assay, 0.5-1 milliunits of enzyme were added to the reaction mixture and, subsequently, a substrate mixture containing catalase, tyramine and ascorbate was added to initiate the reaction (final volume of 200 μl). Samples were incubated with or without the appropriate concentration of nepicastat (S-enantiomer) or (R)-5-Aminomethyl-1-(5,7-difluoro-1,2,3,4-tetrahydronaphth-2-yl)-2,3-dihydro-2-thioxo-1H-imidazole hydrochloride (R-enantiomer) at 37° C. for 30-40 minutes. The reaction was quenched by the stop solution containing 25 mM EDTA and 240 μM 3-hydroxytyramine (internal standard). The samples were analysed for octopamine by reverse phase high pressure liquid chromatography (HPLC) using ultraviolet-detection at […]. The HPLC chromatography run was carried out at the flow rate of 1 ml.min^−1 using a LiChroCART 125-4 RP-18 column and isocratic elution with 10 mM acidic acid, 10 mM 1-heptane sulfonic acid, 12 mM tetrabutyl ammonium phosphate and 10% methanol. The remaining percent activity was calculated based on controls, corrected using internal standards and fitted to a non-linear four-parameter concentration-response curve.
(§2) In vitro assay of DBH activity. DBH activity was assayed by measuring the conversion of tyramine to octopamine. Bovine DBH from adrenal glands was obtained from Sigma Chemical Co (St Louis, Mo.). Human secretory DBH was purified from the culture medium of the neuroblastoma cell line SK-N-SH. The assay was performed at pH 5.2 and 32° C. in 0.125 M NaOAc, 10 mM fumarate, 0.5-2 μM CUSO4, 0.1 mg/mL catalase, 0.1 mM tyramine and 4 mM ascorbate. In a typical assay, 0.5-1 milliunits of enzyme were added to the reaction mixture and then a substrate mixture containing catalase, tyramine and ascorbate was added to initiate the reaction (final volume of 200 μL). Samples were incubated with or without the appropriate concentration of the inhibitor at 37° C. for 30-40 min. The reaction was quenched by the stop solution containing 25 mM EDTA and 240 μM 3-hydroxytyramine (internal standard). The samples were analysed for octopamine by reverse phase HPLC using UV detection at […]. The remaining percent activity was calculated based on controls (without inhibitor), corrected using internal standards and fitted to a non-linear 4-parameter concentration-response curve to obtain IC50 values.
(§3) Bovine DBH from adrenal glands was obtained from Sigma Chemicals (St. Louis, Mo.). Human secretory DBH was purified from the culture medium of the neuroblastoma cell line SK-N-SH and was used to obtain the inhibition data. A lentil lectin-sepharose column containing 25 ml gel was prepared and equilibrated with 50 mM KH2PO4, pH 6.5, 0.5 M NaCl. The column was eluted with 35 ml of 10% methyl α, D-mannopyranoside in 50 mM KH2PO4, pH 6.5, 0.5 M NaCl at 0.5 ml/min. Fraction containing most enzymatic activities were pooled and concentrated with an Amicon stirred cell using a YM30 membrane. […]

[2] = biological target: T2, human dopamine-β-hydroxylase (Homo sapiens, UniProt P09172); experiment: Human DBH activity, conversion of tyramine to octopamine (HPLC); type: biochemical; conditions: for IC50: 0.1 mM tyramine, 4 mM ascorbate, pH 5.2
T2 construct: Human secretory DBH was purified from the culture medium of the neuroblastoma cell line SK-N-SH; endogenous in cells; host or cells: SK-N-SH neuroblastoma cells; secreted enzyme purified in house from the culture medium on lentil lectin-sepharose
T2 sequence (P09172 40-617 limits assumed): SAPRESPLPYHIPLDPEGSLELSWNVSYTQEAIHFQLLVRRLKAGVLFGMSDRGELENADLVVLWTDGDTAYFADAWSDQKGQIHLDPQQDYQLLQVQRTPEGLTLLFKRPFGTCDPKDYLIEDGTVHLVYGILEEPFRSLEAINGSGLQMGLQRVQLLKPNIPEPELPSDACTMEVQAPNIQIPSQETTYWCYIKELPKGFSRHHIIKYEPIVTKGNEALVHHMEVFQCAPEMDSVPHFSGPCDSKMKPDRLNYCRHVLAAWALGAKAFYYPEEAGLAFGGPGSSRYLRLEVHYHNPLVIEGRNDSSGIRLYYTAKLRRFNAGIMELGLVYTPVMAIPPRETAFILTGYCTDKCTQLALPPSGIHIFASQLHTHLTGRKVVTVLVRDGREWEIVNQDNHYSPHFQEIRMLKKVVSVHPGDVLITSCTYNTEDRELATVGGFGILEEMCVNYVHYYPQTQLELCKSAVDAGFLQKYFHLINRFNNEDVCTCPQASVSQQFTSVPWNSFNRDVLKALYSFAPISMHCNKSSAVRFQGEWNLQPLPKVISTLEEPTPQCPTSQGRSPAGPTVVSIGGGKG
Method: as §1, §2
as §3, with “membrane. Methyl α, D-mannopyranoside was removed by buffer exchange with in 50 mM KH2PO4, pH 6.5, 0.1 M NaCl. The concentrated enzyme solution was aliquoted and stored at −25° C. An HPLC assay was used to measure DBH activity using tyramine and ascorbate as substrates.” for “membrane.”

[3] = bovine and human DBH taken together

Structure (SMILES) | IC50 [1] [nM] | IC50 [2] | potency relative to SKF 102698 [1] [fold] | potency relative to the R enantiomer [1] [fold] | potency relative to SKF 102698 [2] [fold] | potency relative to the R enantiomer [2] [fold] | potency relative to SKF 102698 [2, 3] | potency relative to the R enantiomer [2, 3] | selectivity for dopamine-β-hydroxylase ([2]; vs the other enzymes studied) [fold]
Cl.NCc1c[nH]c(=S)n1[C@@H]1CCc2c(F)cc(F)cc2C1 [R-enantiomer, (R)-5-Aminomethyl-1-(5,7-difluoro-1,2,3,4-tetrahydronaphth-2-yl)-2,3-dihydro-2-thioxo-1H-imidazole hydrochloride] | 25.1 ± 0.6 | 18.3 nM and 18 nM | – | – | – | – | – | – | –
Cl.NCc1c[nH]c(=S)n1[C@H]1CCc2c(F)cc(F)cc2C1 [nepicastat, (S)-5-Aminomethyl-1-(5,7-difluoro-1,2,3,4-tetrahydronaphth-2-yl)-2,3-dihydro-2-thioxo-1H-imidazole hydrochloride] | 8.5 ± 0.8 | 9 nM | 8 | 3 | 9 | 2 | 8-9 fold | 2-3 fold | > 1000
Fc1cc(F)cc(Cn2cc[nH]c2=S)c1 [SKF 102698, reference compound] | 67 ± 4.2 | 85 ± 3.7 nM | – | – | – | – | – | – | –
